Source: patent publication US6825363B2, “Compounds useful in optical switching and manufacturing method thereof” (Fuji Xerox Co., Ltd., priority 2002, dated 2004)
In brackets after ≈: the same amount, converted by molar mass.

Columns and labels:
Solubility in chloroform = format: physicochemical; conditions: organic solvent or mixture
Experimental: (§1) For the absorption characteristic of such compounds, absorption spectra were measured by use of a near infrared photospectrometer to confirm that they could be utilized as materials for the optical switch operating at a wavelength of 1.3 μm. Further, for the thermal stability, the thermal decomposition temperature was measured by thermogravimetry and differential thermal analysis to confirm that they were thermally stable materials for the optical switch. Further, their solubility in organic solvents such as chloroform and acetone was confirmed.

[1] = Thermal decomposition temperature by thermogravimetry and differential thermal analysis; format: physicochemical
Experimental: as §1

Row | solubility (Solubility in chloroform) | decomposition temperature (thermal stability) [1] | SMILES
1 | 54 mg/mL (≈ 93.3 mM) | 202.7 °C | CC(C)CN(CC(C)C)c1cc(O)c2c(c1)OC(=O)/C2=C(/[O-])C1=C2C(O)=CC(=[N+](CC(C)C)CC(C)C)C=C2OC1=O [Compound (1)]
2 | 3 mg/mL (≈ 6.43 mM) | ≥ 200 °C | CCN(CC)c1cc(O)c2c(c1)OC(=O)/C2=C(/[O-])C1=C2C(O)=CC(=[N+](CC)CC)C=C2OC1=O [Compound (2)]
